Results on 1 compound are retold here after patent US5229413A, “Compositions containing indole-2-carboxylate compounds for treatment of CNS disorders” (G. D. Searle & Co., priority 1992, dated 1993).

Where only a bound is given, the exact number is not on record here.

Assay [1] has as its target N-methyl-D-aspartate (NMDA) receptor site. Description: Glutamate (NMDA) binding assay, L-[3H]glutamate, synaptic plasma membranes. The settings on record: L-[3H]glutamate 12.5 nM, pH 7.4, 0-4° C.; read-out: Ki apparent, NMDA. The procedure: The purpose of this assay is to determine the binding affinity of a compound of Formula I for the N-methyl-D-aspartate (NMDA) receptor site. This procedure was carried out as follows:
Synaptic plasma membranes (SPM) were prepared as previously described [Monahan, J. B. and Michel, J., "Identification and Characterization of an N-methyl-D-aspartate-specific L-[^3 H]glutamate Recognition Site in Synaptic Plasma Membranes, J. Neurochem., 48, 1699-1708 (1987)]. The SPM were stored at a concentration of 10-15 mg/ml in 0.32 M sucrose, 0.5 mM EDTA, 1 mM MgSO4, 5 mM Tris/SO4, pH 7.4, under liquid nitrogen. The identity and purity of the subcellular fractions were confirmed by both electron microscopy and marker enzymes. Protein concentrations were determined by using a modification of the method of Lowry [Ohnishi, S. T. and Barr, J. K., "A Simplified Method of Quantitating Proteins Using the Biuret and Phenol Reagents", Anal. Biochem., 86, 193-197 (1978)]. The SPM were thawed at room temperature, diluted twenty-fold with 50 mM Tris/acetate, pH 7.4, incubated at 37° C. for 30 minutes, and centrifuged at 100,000 g for 15 minutes. The dilution, incubation, and centrifugation was repeated a total of three times. This general method involved adding 12.5 nM of the L-[^3 H]glutamate radioligand to the appropriate concentration of the test compound and initiating the assay by the addition of ice cold SPM (0.2-0.45 mg). The binding assays were performed in 1.5 ml centrifuge tubes with the total volume adjusted to 1.0 ml. Additions of test compounds were made in 50 mM Tris/acetate, pH 7.4 and incubations were carried out at 0°-4° C. The incubation time for the NMDA binding assay was 10 minutes. To terminate the incubation, the samples were centrifuged for 15 minutes at 12,000 g and 4° C. in a Beckman Microfuge 12. The supernatant was aspirated and the pelleted membranes dissolved in Beckman Ready-Protein scintillation cocktail and the samples counted on a Beckman LS 5800 or 3801 liquid scintillation counter with automatic corrections for quenching and counting efficiency. Nonspecific binding was defined as the residual binding in the presence of 0.5 mM NMDA and was typically 15-25% of the total binding in the NMDA binding assay. Radioligand binding to the SPM was analyzed using Scatchard and Hill transformations and the Ki values of the compounds determined using logit-log transformations. Calculations and regression analysis were performed using templates developed for Lotus 1, 2, 3 as previously described [Pullan, L. M. "Automated Radioligand Receptor Binding Analysis with Templates for Lotus", Computer Appln. Biosci., 3 131 (1987)]. Binding results are reported in Table II for example compounds of the invention.

For assay [2], the target named is T1, NMDA receptor (rat brain receptor expressed in Xenopus oocytes) (Rattus norvegicus, UniProt P35439).
T1 construct: PolyA+ RNA (mRNA) was extracted from adult male rat cortex; expressed in transfected cells; host or cells: Xenopus laevis oocytes microinjected with rat cortex poly(A)+ RNA
Description: Xenopus oocytes injected with rat cortex mRNA, blocking of glycine effects (voltage clamp). The class given is cell-based. The settings on record: 100 μM NMDA. The procedure:
PolyA+ RNA (mRNA) was extracted from adult male rat cortex using the refined guanidinium thiocyanate method developed by Han et al [J. H. Han et al., Biochemistry, 26, 1617-1625 (1987)] and the oligo (dT) cellulose chromatography procedure of Adiv and Leder [H. Aviv et al., Proc. Nat. Acad. Sci., 69, 1408-1412 (1972)]. Aliquots of mRNA (1.0 mg/ml water) were stored at -20° C.
Gravid adult female Xenopus laevis (Xenopus One, Ann Arbor, Mich. or NASCO, Ft. Atkinson, Wis.) were anaesthetized with 0.2% (w/v) Tricaine (3-amino benzoic acid ethyl ester; Sigma) and subjected to partial ovarectomy. Excised oocytes were then prepared and microinjected [N. W. Kleckner et al, Science 241 835-837 (1988)]. Oocytes were treated for one hour in Barth's solution (88.0 mM NaCl, 1.0 mM KCl, 2.4 mM NaHCO3, 0.41 mM CaCl2, 0.82 mM MgSO4, 10.0 μg/ml penicillin, 100.0 μg/ml streptomycin, 10.0 mM HEPES, pH 7.5) containing 1.5 mg/ml Neutral Protease (Beohringer Mannheim Biochemicals, Grade II). Oocytes were then placed in Barth's solution containing 100.0 mM sucrose and manually defolliculated with fine forceps. Defolliculated oocytes were then microinjected with approximately 50 ng of mRNA in Barth's solution at 16°-18° C.
Oocytes were assayed 2-8 days later for rat brain receptor expression via single electrode voltage. clamp (Axoclamp 2A, Axon Instruments) in a manner similar to that previously described [Kleckner et al, Id.]. […] Drugs were added to the perfusate and inward currents induced by agonist compounds were measured at peak steady state response. […] Antagonist compounds were perfused for a minimum of 3.0 minutes prior to subsequent agonist co-application. Data are expressed as percent maximal response (mean±S.E.M.). Half-maximal responses (EC50 's) and slopes for dose response data were determined from the least squares fit to the logistic regression equation.

Assay [3] deals with Cerebellar cGMP. Put plainly: Assay for effect on cGMP (cerebellum, intracisternal injection). The class given is in vivo, Swiss Hausche mice. The settings on record: ± SEM. The procedure:
Male Swiss Hausche mice (25-30 g) were injected intracisternally (i.c.t.) with glycine agonists 10 minutes prior to sacrifice by focussed microwave irradiation. Compounds of the invention were injected intracisternally 2 minutes prior to the agonist. For intracisternal injections, al agonists were dissolved in HCl and diluted with isotonic saline prior to adjustment of the pH to between 6 and 7 with NaOH. The compounds of the invention were dissolved in isotonic saline and all compounds were administered in a volume of 5 μl.
Hydrochloric acid in extracts of the cerebellum were freeze-dried for assay of cGMP with a commercial RIA kit (NEN). Protein determinations (Lowery) and statistics (Dunett's t-test) were performed as described previously [P. L. Wcod et al., Neurochem., 19, 975-982 (1980)]. Groups consisted of 7-10 mice.

Take `O=C(O)Cc1c(C(=O)O)[nH]c2cc(Cl)ccc12` [Compound No. 6, 2-carboxy-6-chloro-3-indoleacetic acid]: the Ki in assay [1] was greater than 100 µM. The IC50 in assay [2] (IC50, 0.1 μM Gly, 0.1 μM glycine) turned out to be 0.77 ± 0.12 µM; in assay [2] (IC50, 1.0 μM Gly, 1.0 μM glycine), 3.2 ± 1.1 µM; in assay [2] (IC50, 10 μM Gly, 10 μM glycine), 6.1 ± 3.2 µM. Further, the “Cerebellar cGMP” value in assay [3] (Compound No. 6 (5 μg) alone) was 3.5 ± 0.55 pmol/mg protein; in assay [3] (D-Serine (100 μg) + Compound No. 6 (5 μg)) it was 5.8 ± 0.96 pmol/mg protein.
